For orientation: IC50 means the concentration at which inhibition is half-maximal.

Consider 2 compounds from US6809106B1, “Quinoline derivatives as inhibitors of MEK enzymes” (AstraZeneca AB, priority 1999, dated 2004).

The test system of assay [1] is HT29 human colon tumour cells. Nature of the assay: Cell proliferation assays. In kind it is cell-based. As to conditions: 72 hours incubation. The protocol:
Cell Proliferation Assays
Cells were seeded into multi-well plates at 20 000-40 000 cells/ml in growth medium containing 5% FCS and incubated overnight at 37° C. The compounds were prepared in fresh medium at an appropriate concentration and added to the wells containing the cells. These were then incubated for a further 72 hours. Cells were then either removed from the wells by incubating with trypsin/EDTA and counted using a Coulter counter, or treated with KIT/PMS in PBSA and optical densities read at […].

The target in another assay is human p45MEK1 (GST-MEK) (Homo sapiens, UniProt Q02750). Nature of the assay: Assay for inhibitors of the MAP kinase pathway (coupled GST-MEK/GST-MAPK/MBP 33P assay). In kind it is biochemical. The conditions noted are these: GST-MEK activated by c-raf, MBP substrate, 8.33 μM ATP. The procedure: Assay for Inhibitors of the MAP Kinase Pathway
Chain of human p45MEK1 (GST-MEK) (Q02750 whole entry, the tested form may be a part): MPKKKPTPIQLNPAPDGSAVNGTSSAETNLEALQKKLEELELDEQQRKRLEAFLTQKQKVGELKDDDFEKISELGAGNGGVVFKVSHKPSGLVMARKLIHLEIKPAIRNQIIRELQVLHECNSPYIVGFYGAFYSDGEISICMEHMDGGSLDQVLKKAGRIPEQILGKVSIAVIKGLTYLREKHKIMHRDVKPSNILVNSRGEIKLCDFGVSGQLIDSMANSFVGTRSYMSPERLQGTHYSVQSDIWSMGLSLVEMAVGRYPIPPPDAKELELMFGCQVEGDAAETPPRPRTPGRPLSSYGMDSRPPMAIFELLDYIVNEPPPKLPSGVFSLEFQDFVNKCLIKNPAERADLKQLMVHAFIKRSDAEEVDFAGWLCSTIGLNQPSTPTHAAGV
To evaluate inhibitors of the MAPK pathway a coupled assay was carried out which measures phosphorylation of serine/threonine residues present in the substrate in the presence or absence of inhibitor. Recombinant glutathione S-transferase fusion protein containing human p45MEK1 (GST-MEK) was activated by c-raf (Sf9 insect cell lysate from triple baculoviral infection with c-raf/ras/lck) and used for the assay. Active GST-MEK was first used to activate a recombinant glutathione S-transferase fusion protein containing p44MAP kinase (GST-MAPK) in the presence of ATP and Mg^2+ for 60min at room temperature in the presence or absence of potential inhibitors. The activated GST-MAPK was then incubated with myelin basic protein (MBP) as substrate for 10 min at room temperature in the presence of ATP, Mg^2+ and ^33P-ATP. The reaction was stopped by addition of 20% v/v phosphoric acid. Incorporation of ^33P into the myelin basic protein was determined by capture of the substrate on a filter mat, washing and counting using scintillation methods. The extent of inhibition was determined by comparison with untreated controls.
The final assay solution contained 10 mM Tris, pH 7.5, 0.05 mM EGTA, 8.33 μM [γ^33P]ATP, 8.33 mM Mg(OAc)2, 0.5 mM sodium orthovanadate, 0.05% w/v BSA, 6.5 ng GST-MEK, 1 μg GST-MAPK and 16.5 μg MBP in a reaction volume of […].

Compound `COc1cc2ncc(Cl)c(Nc3ccc(Oc4ccccc4OC)cc3)c2cc1OC` [Compound 1, 4-(2-methoxyphenoxy)-anilino-3-chloro-6,7-dimethoxyquinoline] yielded a half-maximal inhibitory concentration (IC50) in assay [1] of 3400 nM.
On to `COc1cc2ncc(Cl)c(Nc3ccc(Cl)c(Cl)c3)c2cc1OC` [Compound 5], for which 1530 nM corresponded to half-maximal inhibition against human p45MEK1 (GST-MEK) (IC50).
